Data: patent US20260137706A1, “METHODS OF TREATING INFLAMMATORY DISEASES” (INTERLINE THERAPEUTICS, INC., priority 2023, published 2026)
Where two headings read alike, the source gives them in different places.

Assays:
[1] = molecular target: T1, GST-RIPK2 fusion protein (human RIPK2, amino acids 1-310) (Homo sapiens, UniProt O43353); assay: RIPK2 binding competition assay (TR-FRET, Tracer 199 displacement)
T1 construct: made in house; host or cells: baculovirus infected Sf9 cells
Summary of the method: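 IC50 derived from the TR-FRET emission ratio (665/620 nm, 337 nm excitation), normalized with no-inhibitor and no-enzyme controls. Incubation 45 min at 22 °C, pH 7.5 Tris buffer, with final 10 nM tracer, 1 nM Sf9-expressed GST-RIPK2 fragment (aa 1-310) and 0.5 nM Tb-labelled anti-GST.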

[2] = tested on: NF-κB pathway (SEAP) in THP1-Dual cells; assay: THP-1 Dual cell SEAP assay (L18-MDP stimulated); type: cell-based; details: Homo sapiens, THP1-Dual, read-out: NF-κB THP1 IC50 bin
Summary of the method: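 IC50 values derive from non-linear regression of % inhibition, calculated against DMSO/L18-MDP-treated wells after media-only subtraction. NF-κB SEAP activity was read at OD 620-655 nm (QUANTI-Blue, 2 h, 37 °C) from supernatants of THP1-Dual cells. Cells had been compound-treated 30 min before overnight (20-24 h) stimulation with 10 ng/mL final L18-MDP.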

[3] = molecular target: T2, binding of His-XIAP(BIR2)-avi fusion protein to GST-RIPK2 fusion protein (RIPK2/XIAP) (Homo sapiens, UniProt O43353); assay: RIPK2-XIAP binding competition PPI assay (TR-FRET); details: for Emax: read-out: PPI Amax bin
T2 construct: made in house; host or cells: baculovirus infected Sf9 cells
T2 sequence (O43353 1-310 limits assumed): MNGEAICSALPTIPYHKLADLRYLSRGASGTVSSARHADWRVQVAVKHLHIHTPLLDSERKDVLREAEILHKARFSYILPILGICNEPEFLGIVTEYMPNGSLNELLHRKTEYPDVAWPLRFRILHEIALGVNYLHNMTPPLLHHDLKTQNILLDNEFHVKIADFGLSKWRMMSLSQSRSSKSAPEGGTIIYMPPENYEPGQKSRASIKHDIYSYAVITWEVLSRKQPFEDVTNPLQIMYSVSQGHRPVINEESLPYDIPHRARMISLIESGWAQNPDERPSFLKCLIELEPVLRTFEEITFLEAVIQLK
Summary of the method: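 Compounds (in DMSO, 100-fold stock) incubated 120 min at 23 °C with 1 nM GST-RIPK2 (aa 1-310) and 25 nM His-XIAP(BIR2 aa 152-231)-avi, plus anti-His-XL665 and anti-GST-Tb, in pH 7.5 Tris buffer. Read-out: 665/520 nm emission ratio. Normalized to no-inhibitor (0%) and 50 nM GSK583 (−100%); Amax binned A–D.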

[4] = 10 nM Tracer 199, 1 nM GST-RIPK2, read-out: RIPK2 IC50
[5] = RIPK2/XIAP binding competition PPI assay, Amax
[6] = RIPK2/XIAP binding competition PPI assay, read-out: PPI IC50 bin
[7] = RIPK2 IC50 (nM), 10 nM Tracer 199, 1 nM GST-RIPK2
[8] = PPI IC50 bin, RIPK2/XIAP binding competition PPI assay

T1 sequence (O43353 1-310): as the sequence (O43353 1-310 limits assumed) above

SMILES | IC50 [1, 4] [nM] | IC50 [2] [nM] | Emax [3, 5] [%] | IC50 [3, 6] [nM] | IC50 [1, 7] [nM] | IC50 [3, 8] [nM] | Emax [3] [%]
COc1cc2ncc(-c3cc(F)c(N)nc3F)n2cc1S(=O)(=O)N1CCN(C)CC1 [Example 165, 3,6-difluoro-5-(7-methoxy-6-((4-methylpiperazin-1-yl)sulfonyl)imidazo[1,2-a]pyridin-3-yl)pyridin-2-amine] | > 20 | > 1000 | > 80 | > 20 | – | – | –
COc1cc2ncc(-c3cc(F)c(N)nc3F)n2cc1S(=O)(=O)C(C)(C)CN1CCN(C)CC1 [Example 166, 3,6-difluoro-5-(7-methoxy-6-((2-methyl-1-(4-methylpiperazin-1-yl)propan-2-yl)sulfonyl)imidazo[1,2-a]pyridin-3-yl)pyridin-2-amine] | – | > 1000 | – | – | 2.5 to 20 | 2.5 to 20 | > 80
COCC(C)(C)S(=O)(=O)c1cn2c(-c3cc(F)c(N)nc3F)cnc2cc1OC [Example 167, 3,6-difluoro-5-(7-methoxy-6-((1-methoxy-2-methylpropan-2-yl)sulfonyl)imidazo[1,2-a]pyridin-3-yl)pyridin-2-amine] | > 20 | > 1000 | > 80 | > 20 | – | – | –
COc1cc2ncc(-c3cc(F)c(N)nc3F)n2cc1S(=O)(=O)C(C)(C)CN1CCOCC1 [Example 168, 3,6-difluoro-5-(7-methoxy-6-((2-methyl-1-morpholinopropan-2-yl)sulfonyl)imidazo[1,2-a]pyridin-3-yl)pyridin-2-amine] | 2.5 to 20 | 250 to 1000 | > 80 | 2.5 to 20 | – | – | –
C[C@H](O)COc1cc2ncc(-c3cc(Cl)c(N)nc3F)n2cc1S(=O)(=O)C(C)(C)C [Example 169, (S)-1-((3-(6-amino-5-chloro-2-fluoropyridin-3-yl)-6-(tert-butylsulfonyl)imidazo[1,2-a]pyridin-7-yl)oxy)propan-2-ol] | 1 to 2.5 | 50 to 250 | > 80 | 1 to 2.5 | – | – | –
C[C@H](O)COc1cc2ncc(-c3cc(F)c(N)nc3F)n2cc1S(=O)(=O)C(C)(C)C [Example 170, (S)-1-((3-(6-amino-2,5-difluoropyridin-3-yl)-6-(tert-butylsulfonyl)imidazo[1,2-a]pyridin-7-yl)oxy)propan-2-ol] | 1 to 2.5 | 50 to 250 | > 80 | 1 to 2.5 | – | – | –
C[C@@H](O)COc1cc2ncc(-c3cc(F)c(N)nc3F)n2cc1S(=O)(=O)C(C)(C)C [Example 171, (R)-1-((3-(6-amino-2,5-difluoropyridin-3-yl)-6-(tert-butylsulfonyl)imidazo[1,2-a]pyridin-7-yl)oxy)propan-2-ol] | 2.5 to 20 | 50 to 250 | > 80 | 2.5 to 20 | – | – | –
C[C@H](CO)Oc1cc2ncc(-c3cc(F)c(N)nc3F)n2cc1S(=O)(=O)C(C)(C)C [Example 172, (R)-2-((3-(6-amino-2,5-difluoropyridin-3-yl)-6-(tert-butylsulfonyl)imidazo[1,2-a]pyridin-7-yl)oxy)propan-1-ol] | – | 250 to 1000 | > 80 | – | 2.5 to 20 | 2.5 to 20 | –
C[C@@H](CO)Oc1cc2ncc(-c3cc(F)c(N)nc3F)n2cc1S(=O)(=O)C(C)(C)C [Example 173, (S)-2-((3-(6-amino-2,5-difluoropyridin-3-yl)-6-(tert-butylsulfonyl)imidazo[1,2-a]pyridin-7-yl)oxy)propan-1-ol] | – | > 1000 | > 80 | – | 2.5 to 20 | 2.5 to 20 | –
C[C@@H](CO)COc1cc2ncc(-c3cc(F)c(N)nc3F)n2cc1S(=O)(=O)C(C)(C)C [Example 175, (S)-3-((3-(6-amino-2,5-difluoropyridin-3-yl)-6-(tert-butylsulfonyl)imidazo[1,2-a]pyridin-7-yl)oxy)-2-methylpropan-1-ol] | 1 to 2.5 | 50 to 250 | > 80 | 1 to 2.5 | – | – | –
C[C@H](CO)COc1cc2ncc(-c3cc(F)c(N)nc3F)n2cc1S(=O)(=O)C(C)(C)C [Example 176, (R)-3-((3-(6-amino-2,5-difluoropyridin-3-yl)-6-(tert-butylsulfonyl)imidazo[1,2-a]pyridin-7-yl)oxy)-2-methylpropan-1-ol] | 1 to 2.5 | 50 to 250 | > 80 | 1 to 2.5 | – | – | –
CC(C)(C)S(=O)(=O)c1cn2c(-c3cc(F)c(N)nc3F)cnc2cc1OCC1(O)CC1 [Example 177, 1-(((3-(6-amino-2,5-difluoropyridin-3-yl)-6-(tert-butylsulfonyl)imidazo[1,2-a]pyridin-7-yl)oxy)methyl)cyclopropan-1-ol] | 1 to 2.5 | 50 to 250 | > 80 | 2.5 to 20 | – | – | –
COc1cc2ncc(-c3cc(NS(=O)(=O)C4(CO)CC4)c(OC)c(OC)c3)n2cc1S(=O)(=O)C(C)(C)C [Example 178, N-(5-(6-(tert-butylsulfonyl)-7-methoxyimidazo[1,2-a]pyridin-3-yl)-2,3-dimethoxyphenyl)-1-(hydroxymethyl)cyclopropane-1-sulfonamide] | < 1 | < 50 | > 80 | < 1 | – | – | –
COc1cc2ncc(-c3cccc(NS(=O)(=O)C4(CO)CC4)c3)n2cc1S(=O)(=O)C(C)(C)C [Example 179, N-(3-(6-(tert-butylsulfonyl)-7-methoxyimidazo[1,2-a]pyridin-3-yl)phenyl)-1-(hydroxymethyl)cyclopropane-1-sulfonamide] | 2.5 to 20 | > 1000 | 55 to 80 | 2.5 to 20 | – | – | –
COc1cc2ncc(-c3cc(F)c(OC)c(NS(=O)(=O)C4(CO)CC4)c3)n2cc1S(=O)(=O)C(C)(C)C [Example 180, N-(5-(6-(tert-butylsulfonyl)-7-methoxyimidazo[1,2-a]pyridin-3-yl)-3-fluoro-2-methoxyphenyl)-1-(hydroxymethyl)cyclopropane-1-sulfonamide] | 1 to 2.5 | 50 to 250 | > 80 | < 1 | – | – | –
COc1cn2ncc(-c3cc(F)c(OC)c(NS(=O)(=O)C4(CO)CC4)c3)c2cc1S(=O)(=O)C(C)(C)C [Example 181, N-(5-(5-(tert-butylsulfonyl)-6-methoxypyrazolo[1,5-a]pyridin-3-yl)-3-fluoro-2-methoxyphenyl)-1-(hydroxymethyl)cyclopropane-1-sulfonamide] | < 1 | < 50 | > 80 | < 1 | – | – | –
COc1c(F)cc(-c2cnc3cc(OC[C@@H](C)CO)c(S(=O)(=O)C(C)(C)C)cn23)cc1NS(C)(=O)=O [Example 182, (S)-N-(5-(6-(tert-butylsulfonyl)-7-(3-hydroxy-2-methylpropoxy)imidazo[1,2-a]pyridin-3-yl)-3-fluoro-2-methoxyphenyl)methanesulfonamide] | < 1 | < 50 | 55 to 80 | < 1 | – | – | –
COc1c(F)cc(-c2cnc3cc(OC[C@H](C)CO)c(S(=O)(=O)C(C)(C)C)cn23)cc1NS(C)(=O)=O [Example 183, (R)-N-(5-(6-(tert-butylsulfonyl)-7-(3-hydroxy-2-methylpropoxy)imidazo[1,2-a]pyridin-3-yl)-3-fluoro-2-methoxyphenyl)methanesulfonamide] | < 1 | < 50 | 55 to 80 | < 1 | – | – | –
COc1cc2ncc(-c3cc(F)c(OC)c4[nH]c(CCO)nc34)n2cc1S(=O)(=O)C(C)(C)C [Example 184, 2-(4-(6-(tert-butylsulfonyl)-7-methoxyimidazo[1,2-a]pyridin-3-yl)-6-fluoro-7-methoxy-1H-benzo[d]imidazol-2-yl)ethan-1-ol] | 1 to 2.5 | 250 to 1000 | 30 to 55 | 1 to 2.5 | – | – | –
COc1cc2ncc(-c3cc(F)c(OC)c4[nH]c(CN5CC(O)C5)nc34)n2cc1S(=O)(=O)C(C)(C)C [Example 185, 1-((4-(6-(tert-butylsulfonyl)-7-methoxyimidazo[1,2-a]pyridin-3-yl)-6-fluoro-7-methoxy-1H-benzo[d]imidazol-2-yl)methyl)azetidin-3-ol] | 2.5 to 20 | 50 to 250 | 30 to 55 | 1 to 2.5 | – | – | –
CC(C)(C)S(=O)(=O)c1cn2c(-c3cc(Br)c(N)nc3F)cnc2cc1OCCO [Example 186, 2-((3-(6-amino-5-bromo-2-fluoropyridin-3-yl)-6-(tert-butylsulfonyl)imidazo[1,2-a]pyridin-7-yl)oxy)ethan-1-ol] | 2.5 to 20 | 250 to 1000 | > 80 | 2.5 to 20 | – | – | –
CC(C)(C)S(=O)(=O)c1cc2c(-c3cc(Cl)c(N)nc3F)cnn2cc1OCCOP(=O)(O)O [Example 187, 2-((3-(6-amino-5-chloro-2-fluoropyridin-3-yl)-5-(tert-butylsulfonyl)pyrazolo[1,5-a]pyridin-6-yl)oxy)ethyl dihydrogen phosphate] | 2.5 to 20 | 250 to 1000 | > 80 | 2.5 to 20 | – | – | –
